Laboratory results: paper PMC12472551, “Comprehensive Identification and Mechanistic Evaluation of Novel DHODH Inhibitors as Potent Broad-Spectrum Antiviral Agents” (Pharmaceuticals, 2025)
Read-outs that look alike come from different tables or passages of the source.

Key:
[1] = test system: influenza A virus (A/PR/8/34(H1N1)); experiment: microbe, parasite or virus in culture; format: cell-based
[2] = MTT cytotoxicity assay in Vero cells; format: cell-based; conditions: African green monkey, Vero-ACE2-TMPRSS2 cells
Description: A Vero-ACE2-TMPRSS2 (labelled ‘Vero’ hereafter) cell line was used for SARS-CoV-2.
(§1) The cytotoxic effects of the test compounds on MDCK and Vero cell lines were evaluated utilizing the 3-(4,5-dimethylthiazol-2-yl)-2,5-diphenyltetrazolium bromide (MTT) assay. In brief, cells were seeded in 96-well plates and maintained in complete growth medium. After an overnight incubation period, this medium was aspirated and replaced with serum-free DMEM containing the compounds at predetermined concentrations. After 48 h of treatment, MTT dissolved in PBS was introduced into each well to achieve a final concentration of 0.5 mg/mL. Subsequent incubation at 37 °C for 2 h facilitated formazan crystal formation. The medium was then aspirated, and DMSO was added to solubilize the formazan crystals. Absorbance measurements at 540 nm were conducted using a CLARIOstar microplate reader.

[3] = MTT cytotoxicity assay in MDCK cells; format: cell-based, Canine; conditions: dog
Description: as §1

SARS-CoV-2 = experiment: microbe, parasite or virus in culture; format: cell-based; conditions: Severe acute respiratory syndrome coronavirus 2
human DHODH = human DHODH (Homo sapiens, UniProt Q02127); experiment: Surface plasmon resonance binding
human DHODH, sequence (Q02127 whole entry): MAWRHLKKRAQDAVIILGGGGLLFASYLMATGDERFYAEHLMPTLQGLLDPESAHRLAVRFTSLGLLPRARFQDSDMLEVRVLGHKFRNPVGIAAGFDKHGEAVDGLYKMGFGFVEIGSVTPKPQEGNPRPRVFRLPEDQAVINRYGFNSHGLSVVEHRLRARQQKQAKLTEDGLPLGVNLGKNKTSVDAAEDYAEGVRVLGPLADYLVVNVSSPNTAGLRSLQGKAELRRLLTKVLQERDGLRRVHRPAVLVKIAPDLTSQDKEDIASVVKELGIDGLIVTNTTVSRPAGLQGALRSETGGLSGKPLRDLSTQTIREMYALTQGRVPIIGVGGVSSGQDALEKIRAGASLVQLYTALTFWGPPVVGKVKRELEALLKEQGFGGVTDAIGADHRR
Description: SPR binding affinities were determined using a Reichert 2SPR instrument (Reichert Technologies, Amherst, NY, USA). Carboxymethyl dextran hydrogel sensor chips were amine-coupled via standard EDC/NHS chemistry. […] Remaining activated groups were quenched with 1 M ethanolamine-HCl (pH 8.5). Equilibrium dissociation constants (KD) were derived from concentration–response curves generated by injecting compound dilutions in HBS-EP+ buffer at 30 μL/min. Original data were processed using TraceDrawer (version 1.8) software with steady-state affinity models fitted by nonlinear regression analysis.

DHODH = conditions: cited from earlier work
DENV and ZIKV viruses = test system: DENV and ZIKV viruses; set-up: method as in PMID 33716051; conditions: cited from earlier work
[4] = read-out: CC50 (hematological toxicity); cited from earlier work
human lung organoids = conditions: viral replication in human lung organoids; cited from earlier work
[5] = Influenza A virus, MDCK, A/PR/8/34(H1N1), MDCK cells, plaque reduction, read-out: IC50
[6] = SARS-CoV-2, Vero-ACE2-TMPRSS2 cells, plaque assay, read-out: IC50

SMILES | IC50 [1, 5] [µM] | CC50 at 48 h [2] [µM] | CC50 at 48 h [3] [µM] | IC50 (SARS-CoV-2; [6]) [µM] | IC50 ([1]; Influenza A virus, MDCK) [µM] | further results
CCOC(=O)c1c(C)nc2cc(C)c(-c3ccc(-c4ccccc4)cc3)cn12 [Compound 15, Ethyl 6-([1,1′-biphenyl]-4-yl)-2,7-dimethylimidazo[1,2-a]pyridine-3-carboxylate] | > 200 | > 200 | > 200 | > 200 | – | –
Cc1cc2nc(C)c(C(=O)O)n2cc1-c1ccc(-c2ccccc2)cc1 [Compound 11, 6-([1,1′-Biphenyl]-4-yl)-2,7-dimethylimidazo[1,2-a]pyridine-3-carboxylic acid] | 0.85 ± 0.05 | > 200 | > 200 | 3.6 ± 0.67 | – | kon (human DHODH; read-out: Ka, association constant): 4.83e+06 M⁻¹ s⁻¹; koff (human DHODH; read-out: Kdis, dissociation constant): 29.3 s⁻¹
O=C(COc1ccccc1)Nc1ccc(N2CCN(c3ccccc3F)CC2)cc1C(=O)O [Compound 5] | – | – | > 200 | – | > 200 | –
COC(=O)c1ccc(NC(=O)CSc2nc(-c3sc(-c4ccccc4)nc3C)cc(=O)[nH]2)cc1 [Compound 3] | – | – | > 200 | – | > 200 | –
O=C(CCCCCn1c(=O)c2sccc2n(CC(=O)NCCC2=CCCCC2)c1=O)NCc1ccc(F)cc1 [Compound 2] | – | – | > 200 | – | > 200 | –
C/C(O)=C(\C#N)C(=O)Nc1ccc(C(F)(F)F)cc1 [Compound 17, teriflunomide, reference compound] | 35 ± 3.33 | > 200 | 181 ± 16.4 | 26.1 ± 4.32 | – | IC50 (DHODH; competing with ubiquinone, read-out: IC50 (DHODH inhibition)): […]
CC1(c2ccccc2)CC(C)(C)N(C(=O)CSc2nc(O)cc(CSc3ccc(Cl)cc3)n2)c2ccccc21 (centres unmarked) [Compound 1] | – | – | 34.5 ± 1.58 | – | 36.8 ± 2.36 | –
COc1cccc(-c2ccc(NC(=O)C3=C(C(=O)O)CCC3)c(F)c2)c1 [vidofludimus] | – | – | – | – | – | IC50 (DHODH; enhanced selectivity, read-out: IC50): 0.041 to 0.16 µM
CCOC(=O)c1c(C)nc2ccc(-c3ccc(-c4ccccc4)cc3)cn12 [Compound 14, Ethyl 6-([1,1′-biphenyl]-4-yl)-2-methylimidazo[1,2-a]pyridine-3-carboxylate] | > 200 | > 200 | > 200 | > 200 | – | –
Cc1c(-c2ccc(-c3ccccc3F)cc2)nc2ccc(F)cc2c1C(=O)O [Compound 18, brequinar] | – | – | – | – | – | Ka, association constant (human DHODH; SPR): 1.31 × 10^6 M^−1S^−1; EC50 (DENV and ZIKV viruses): 0.017 to 0.061 µM; CC50 [4]: > 5 µM
CCCCc1nn2c(=O)cc(CSc3nc4ccc(NC(C)=O)cc4s3)nc2s1 [Compound 4] | – | – | > 200 | – | 66.2 ± 6.29 | –
Cc1ccc(-c2onc3ccc(-c4cc(C(=O)O)c5ccccc5n4)cc23)cc1 [Compound 9] | – | – | > 200 | – | 7.35 ± 1.65 | –
O=C(Cc1cccs1)Nc1ccc(N2CCN(c3ccccc3Cl)CC2)cc1C(=O)O [Compound 7] | – | – | > 200 | – | 17.2 ± 1.19 | –
CCn1c(CO)nn(-c2cc(O[C@@H](C)C(F)(F)F)c(C(=O)Nc3c(F)cccc3Cl)cc2F)c1=O [BAY 2402234] | – | – | – | – | – | EC50 (human lung organoids): 0.032 µM
Cc1ccc(-c2onc3ccc(-c4cc(C(=O)O)c5cc(C)ccc5n4)cc23)cc1 [Compound 10] | – | – | > 200 | – | 1.75 ± 0.28 | –
CC(=O)c1ccc(N2CCN(C(=O)c3cc4c(=O)n(C)c5ccccc5c4s3)CC2)cc1 [Compound 6] | – | – | > 200 | – | 4.85 ± 0.58 | –
CN1C(=O)c2ccccc2Sc2cc(-c3noc(CNC(=O)Cc4ccc(Cl)cc4)n3)ccc21 [Compound 8] | – | – | > 200 | – | 13.4 ± 2.45 | –
CCOC(=O)c1c(C)nc2ncc(-c3ccc(-c4ccccc4)cc3)cn12 [Compound 16, Ethyl 6-([1,1′-biphenyl]-4-yl)-2-methylimidazo[1,2-a]pyrimidine-3-carboxylate] | > 200 | > 200 | > 200 | > 200 | – | –
CCC(CC)COC(=O)[C@H](C)N[P@](=O)(OC[C@H]1O[C@@](C#N)(c2ccc3c(N)ncnn23)[C@H](O)[C@@H]1O)Oc1ccccc1 [Remdesivir, reference compound] | – | – | – | – | – | IC50 (SARS-CoV-2): 4.95 ± 0.78 µM
Cc1nc2ncc(-c3ccc(-c4ccccc4)cc3)cn2c1C(=O)O [Compound 13, 6-([1,1′-Biphenyl]-4-yl)-2-methylimidazo [1,2-a]pyrimidine-3-carboxylic acid] | 1.08 ± 0.26 | > 200 | > 200 | 105 ± 5.19 | – | –
Cc1nc2ccc(-c3ccc(-c4ccccc4)cc3)cn2c1C(=O)O [Compound 12, 6-([1,1′-Biphenyl]-4-yl)-2-methylimidazo[1,2-a]pyridine-3-carboxylic acid] | > 100 | > 200 | > 200 | > 200 | – | IC50 ([1]; A/PR/8/34(H1N1), MDCK cells, plaque reduction, read-out: IC50): 100 ± 1.13 µM
COC(=O)OCOc1c2n(ccc1=O)N([C@@H]1c3ccccc3SCc3c1ccc(F)c3F)[C@@H]1COCCN1C2=O [Baloxavir marboxil, reference compound] | 0.00967 ± 0.00112 | – | – | – | – | –
